Measurements as given in patent US20230022724A1, “NOVEL IMIDAZOPYRAZINE DERIVATIVES” (Hoffmann-La Roche Inc., priority 2018, published 2023).
Where a name gives a salt, the structure may show the parent alone.

System: Acinetobacter baumannii ATCC17978
Experiment: Antimicrobial susceptibility testing: 90% growth inhibitory concentration (IC90) determination
Assay type: cell-based
Details: Acinetobacter baumannii, ATCC17978, 16 h, 90% growth inhibitory concentration, Acinetobacter baumannii ATCC17978, Iso-Sensitest broth, OD 600 nm over 16 h; read-out: ATCC17978 IC90
Method: The in vitro antimicrobial activity of the compounds was determined according to the following procedure:
The assay used a 10-points Iso-Sensitest broth medium to measure quantitatively the in vitro activity of the compounds against Acinetobacter baumannii ATCC17978 and Acinetobacter baumannii ATCC17961.
Stock compounds in DMSO were serially twofold diluted (e.g. range from 50 to 0.097 μM final concentration) in 384 wells microtiter plates and inoculated with 49 μl the bacterial suspension in Iso-Sensitest medium to have a final cell concentration of ˜5×10^(5) CFU/ml in a final volume/well of 50 ul/well. Microtiter plates were incubated at 35±2° C.
Bacterial cell growth was determined with the measurement of optical density at λ=600 nm each 20 minutes over a time course of 16 h. Growth inhibition was calculated during the logarithmic growth of the bacterial cells with determination of the concentration inhibiting 50% (IC50) and 90% (IC90) of the growth.
Table 1 provides the 90% growth inhibitory concentrations (IC90) in micromoles per liter of the compounds of present invention obtained against the strain Acinetobacter baumannii ATCC17978 and Acinetobacter baumannii ATCC17961.

Compound | IC90
N#CCOc1ccc(-c2cnc3c(Nc4ccc(C(=O)N5CCN(CCN6CC(C(N)=O)C6)CC5)c(Cl)c4)nccn23)c(F)c1F [Example 94, 1-[2-[4-[2-chloro-4-[[3-[4-(cyanomethoxy)-2,3-difluorophenyl]imidazo[1,2-a]pyrazin-8-yl]amino]benzoyl]piperazin-1-yl]ethyl]azetidine-3-carboxamide;2,2,2-trifluoroacetic acid] | 54 nM
NCC1CCN(C(=O)c2ccc(Nc3nccn4c(-c5ccc(OC(F)F)cc5)cnc34)cc2I)CC1 [Example 51, [4-(aminomethyl)piperidin-1-yl]-[4-[[3-[4-(difluoromethoxy)phenyl]imidazo[1,2-a]pyrazin-8-yl]amino]-2-iodophenyl]methanone; hydrochloride] | 230 nM
COc1ccc(-c2cnc3c(Nc4ccc(C(=O)N5CCN(CCN(C)C)CC5)c(Cl)c4)nccn23)cc1F [Example 55, [2-chloro-4-[[3-(3-fluoro-4-methoxyphenyl)imidazo[1,2-a]pyrazin-8-yl]amino]phenyl]-[4-[2-(dimethylamino)ethyl]piperazin-1-yl]methanone;hydrochloride] | 140 nM
COc1ccc(-c2cnc3c(Nc4ccc(C(=O)N5CCN(CCNCCO)CC5)c(Cl)c4)nccn23)cc1F [Example 43, (2-Chloro-4-((3-(3-fluoro-4-methoxyphenyl)imidazo[1,2-a]pyrazin-8-yl)amino)phenyl)(4-(2-((2-hydroxyethyl)amino)ethyl)piperazin-1-yl)methanone] | 140 nM
NCC1CCN(C(=O)c2ccc(Nc3nccn4c(-c5ccc(OCC#CCO)c(F)c5)cnc34)cc2Cl)CC1 [Example 76, [4-(aminomethyl)piperidin-1-yl]-[2-chloro-4-[[3-[3-fluoro-4-(4-hydroxybut-2-ynoxy)phenyl]imidazo[1,2-a]pyrazin-8-yl]amino]phenyl]methanone] | 240 nM
COc1ccc(-c2cnc3c(Nc4ccc(C(=O)N5CCC(C(=O)NCC(O)CN)CC5)c(Cl)c4)nccn23)cc1F (stereo not drawn) [Example 60, N-(3-amino-2-hydroxypropyl)-1-[2-chloro-4-[[3-(3-fluoro-4-methoxyphenyl)imidazo[1,2-a]pyrazin-8-yl]amino]benzoyl]piperidine-4-carboxamide;hydrochloride] | 140 nM
N#CCOc1ccc(-c2cnc3c(Nc4ccc(C(=O)N5CCC(n6cnnc6)CC5)c(Cl)c4)nccn23)c(F)c1F [Example 24, 2-[4-[8-[3-chloro-4-[4-(1,2,4-triazol-4-yl)piperidine-1-carbonyl]anilino]imidazo[1,2-a]pyrazin-3-yl]-2,3-difluoro-phenoxy]acetonitrile] | 150 nM
CN(C)CCN1CCN(C(=O)c2ccc(Nc3nccn4c(-c5ccc(OC(F)F)cc5)cnc34)cc2Cl)CC1 [Example 69, [2-chloro-4-[[3-[4-(difluoromethoxy)phenyl]imidazo[1,2-a]pyrazin-8-yl]amino]phenyl]-[4-[2-(dimethylamino)ethyl]piperazin-1-yl]methanone] | 140 nM
COc1ccc(-c2cnc3c(Nc4ccc(C(=O)N5CCC(CN)CC5)c(Br)c4)nccn23)cc1F [Example 80, [4-(aminomethyl)piperidin-1-yl]-[2-bromo-4-[[3-(3-fluoro-4-methoxyphenyl)imidazo[1,2-a]pyrazin-8-yl]amino]phenyl]methanone] | 87 nM
COc1ccc(-c2cnc3c(Nc4ccc(C(=O)N5CCN(C)CC5)cc4)nccn23)cc1Cl [Example 74, [4-[[3-(3-chloro-4-methoxyphenyl)imidazo[1,2-a]pyrazin-8-yl]amino]phenyl]-(4-methylpiperazin-1-yl)methanone] | 2700 nM
O=C(c1ccc(Nc2nccn3c(-c4ccc(OC(F)F)cc4)cnc23)cc1Cl)N1CCC(N2CCNCC2)CC1 [Example 67, [2-chloro-4-[[3-[4-(difluoromethoxy)phenyl]imidazo [1,2-a]pyrazin-8-yl]amino]phenyl]-(4-piperazin-1-ylpiperidin-1-yl)methanone;hydrochloride] | 170 nM
N#CCOc1ccc(-c2cnc3c(Nc4ccc(C(=O)N5CCN(CCN6CC(c7nnn[nH]7)C6)CC5)c(Cl)c4)nccn23)c(F)c1F [Example 105, 2-(4-(8-((4-(4-(2-(3-(2H-tetrazol-5-yl)azetidin-1-yl)ethyl)piperazine-1-carbonyl)-3-chlorophenyl)amino)imidazo [1,2-a]pyrazin-3-yl)-2,3-difluorophenoxy)acetonitrile trifluoroacetate] | 360 nM
CNCCN1CCN(C(=O)c2ccc(Nc3nccn4c(-c5ccc(OCC#N)c(F)c5F)cnc34)cc2Cl)CC1 [Example 91, 2-[4-[8-[3-chloro-4-[4-[2-(methylamino)ethyl]piperazine-1-carbonyl]anilino]imidazo[1,2-a]pyrazin-3-yl]-2,3-difluorophenoxy]acetonitrile; 2,2,2-trifluoroacetic acid] | 49 nM
COc1ccc(-c2cnc3c(Nc4ccc(C(=O)N5CCC(N(C)C)C5)cc4)nccn23)cc1 (stereo not drawn) [Example 66, [3-(dimethylamino)pyrrolidin-1-yl]-[4-[[3-(4-methoxyphenyl)imidazo[1,2-a]pyrazin-8-yl]amino]phenyl]methanone] | 5900 nM
N#CCOc1ccc(-c2cnc3c(Nc4ccc(C(=O)N5CCN(C(=O)N6CCN[C@@H](CO)C6)CC5)c(Cl)c4)nccn23)c(F)c1F [Example 36, 2-[4-[8-[3-chloro-4-[4-[(3R)-3-(hydroxymethyl)piperazine-1-carbonyl]piperazine-1-carbonyl]anilino]imidazo[1,2-a]pyrazin-3-yl]-2,3-difluoro-phenoxy]acetonitrile] | 41 nM

Same assay, conditions: Acinetobacter baumannii, ATCC17978, 16 h, read-out: ATCC17978 IC90

Compound | IC90
CC(C#N)Oc1ccc(-c2cnc3c(Nc4ccc(C(=O)N5CCN(CCCN(C)C)CC5)c(Cl)c4)nccn23)c(F)c1F (stereo not drawn) [Example 42, 2-[4-[8-[3-chloro-4-[4-[3-(dimethylamino)pro-pyl]piperazine-1-carbonyl]anilino]imi-dazo[1,2-a]pyrazin-3-yl]-2,3-difluoro-phenoxy]propanenitrile] | 200 nM
Cc1cc(Nc2nccn3c(-c4ccc(OC(F)F)cc4)cnc23)ccc1C(=O)N1CCN(C(=O)N2CCN[C@H](C(=O)O)C2)CC1 [Example 82, (2S)-4-[4-[4-[[3-[4-(difluoromethoxy)phenyl]imidazo [1,2-a]pyrazin-8-yl]amino]-2-methylbenzoyl]piperazine-1-carbonyl]piperazine-2-carboxylic acid;hydrochloride] | 1000 nM
CN(C)CC(=O)N1CCN(C(=O)c2ccc(Nc3nccn4c(-c5ccc(OCC#N)c(F)c5F)cnc34)cc2Cl)CC1 [Example 14, 2-[4-[8-[3-chloro-4-[4-[2-(dimethylamino)acetyl]piperazine-1-carbonyl]anilino]imidazo[1,2-a]pyrazin-3-yl]-2,3-difluoro-phenoxy]acetonitrile; 2,2,2-trifluoroacetic acid] | 28 nM
N#CCOc1ccc(-c2cnc3c(Nc4ccc(C(=O)N5CCN(CCN6CCC(CO)C6)CC5)c(Cl)c4)nccn23)c(F)c1F (stereo not drawn) [Example 90, 2-[4-[8-[3-chloro-4-[4-[2-[3-(hydroxymethyl)pyrrolidin-1-yl]ethyl]piperazine-1-carbonyl]anilino]imidazo[1,2-a]pyrazin-3-yl]-2,3-difluorophenoxy]acetonitrile; 2,2,2-trifluoroacetic acid] | 43 nM
N#CCOc1ccc(-c2cnc3c(Nc4ccc(C(=O)N5CCN(C(=O)[C@@H]6C[C@@H](O)CN6)CC5)c(Cl)c4)nccn23)c(F)c1F [Example 34, 2-[4-[8-[3-chloro-4-[4-[(2S,4R)-4-hydroxypyrrolidine-2-carbonyl]piperazine-1-carbonyl]anilino]imidazo [1,2-a]pyrazin-3-yl]-2,3-difluroo-phenoxy]acetonitrile formate] | 31 nM
N#CCOc1ccc(-c2cnc3c(Nc4ccc(C(=O)N5CCN(CCN6CCC(O)C6)CC5)c(Cl)c4)nccn23)c(F)c1F (stereo not drawn) [Example 95, 2-[4-[8-[3-chloro-4-[4-[2-(3-hydroxypyrrolidin-1-yl)ethyl]piperazine-1-carbonyl]anilino]imidazo[1,2-a]pyrazin-3-yl]-2,3-difluorophenoxy]acetonitrile; 2,2,2-trifluoroacetic acid] | 56 nM
COC1CN(CCN2CCN(C(=O)c3ccc(Nc4nccn5c(-c6ccc(OCC#N)c(F)c6F)cnc45)cc3Cl)CC2)C1 [Example 97, 2-[4-[8-[3-chloro-4-[4-[2-(3-methoxyazetidin-1-yl)ethyl]piperazine-1-carbonyl]anilino]imidazo[1,2-a]pyrazin-3-yl]-2,3-difluorophenoxy]acetonitrile; 2,2,2-trifluoroacetic acid] | 100 nM
N#CCOc1ccc(-c2cnc3c(Nc4ccc(C(=O)N5CCC(C(=O)N6CCN[C@H](CO)C6)CC5)c(Cl)c4)nccn23)c(F)c1F [Example 87, 2-[4-[8-[3-chloro-4-[4-[(3S)-3-(hydroxymethyl)piperazine-1-carbonyl]piperidine-1-carbonyl]anilino]imidazo[1,2-a]pyrazin-3-yl]-2,3-difluorophenoxy]acetonitrile; formic acid] | 52 nM
COc1ccc(-c2cnc3c(Nc4ccc(C(=O)N5CCN(C6CNC6)CC5)c(Cl)c4)nccn23)cc1F [Example 73, [4-(azetidin-3-yl)piperazin-1-yl]-[2-chloro-4-[[3-(3-fluoro-4-methoxyphenyl)imidazo[1,2-a]pyrazin-8-yl]amino]phenyl]methanone; hydrochloride] | 530 nM
